Values quoted from earlier work in patent US20210145768A1, “MODULATING IMMUNE RESPONSE VIA TARGETING OF OLFACTORY RECEPTOR ACTIVITY” (La Jolla Institute for Allergy and Immunology, priority 2018, published 2021).

test system: olfactory receptors; conditions: odorant (agonist) : olfactory receptor pair; cited from earlier work

Row | SMILES | Olfactory receptor agonized by the odorant (agonist)
1 | CC1=CCC(CCC(C)CO)C1(C)C (stereo not drawn) [Brahmanol] | OR2AT4
2 | CCCCCOC(=O)CCC [amyl butyrate] | OR2AG1
3 | O=C(O)CCCCCCCC(=O)O [azelaic acid] | Olfr544 (human unknown)
